Like-named read-outs stand apart in the source and are kept apart here.
What was measured:
[1] = system: Prostate cancer cell lines; assay: 6-day growth-death assay (Cell Titer Glo); assay type: cell-based, human; conditions: 4 cell lines
HL-60 = assay: 6-day growth-death assay (Cell Titer Glo); assay type: cell-based; conditions: Homo sapiens, HL-60, 144 h, read-out: gIC50
Method: (§1) The growth of all cell lines was evaluated over time across a wide range of seeding densities to identify conditions that permitted proliferation throughout the entire 6-day assay. Cells were plated at the optimal seeding density and after overnight incubation, a 20-point 2-fold titration of compound was added and plates were incubated for 6 days. A replicate plate of cells was harvested at the time of compound addition to quantify the starting number of cells (To). Values obtained after the 6 day treatment were expressed as a function of the To value and plotted against compound concentration. The To value was normalized to 100% and represents the number of cells at the time of compound addition. The data were fit with a 4 parameter equation to generate a concentration response curve and the growth IC50 (gIC50) was determined. The gIC50 is the midpoint of the ‘growth window’, the difference between the number of cells at the time of compound addition (T0) and the number of cells after 6 days (DMSO control). The growth-death assay can be used to quantify the net population change, clearly defining cell death (cytotoxicity) as fewer cells compared to the number at the time of compound addition (T0).

ACHN = assay: 6-day growth-death assay (Cell Titer Glo); assay type: cell-based; conditions: Homo sapiens, 144 h, read-out: gIC50
Method: as §1

A375 = assay: 6-day growth-death assay (Cell Titer Glo); assay type: cell-based; conditions: Homo sapiens, A-375, 144 h, read-out: gIC50
Method: as §1

SK-MEL-5 = assay: 6-day growth-death assay (Cell Titer Glo); assay type: cell-based; conditions: Homo sapiens, SK-MEL-5, 144 h, read-out: gIC50
Method: as §1

AML cell lines = assay: 6-day growth-death assay (Cell Titer Glo); assay type: cell-based, human
Toledo = system: Toledo
Method: (§2) FIG. 18: Propidium iodide FACS analysis of cell cycle in human lymphoma cell lines. […] Data represents the average±SEM of biological replicates, n=2.
(§3) By day 7, an increase in the sub-G1 population was apparent at concentrations ≥100 nM.

OCI-Ly1 = conditions: only at this concentration
Method: as §2, §3

U2932 = conditions: only at this concentration
Method: as §2, §3

Colon cancer cell lines = assay: 6-day growth-death assay (Cell Titer Glo); assay type: cell-based, human
[2] = system: human renal cell carcinoma xenografts (ACHN); assay: ACHN xenograft tumor growth; assay type: in vivo, SCID mice; conditions: for Body weight Difference (vs. vehicle): ACHN (ccRCC)
MDA-MB-435S = assay: 6-day growth-death assay (Cell Titer Glo); assay type: cell-based, human
Method: as §1

PRMT9 = PRMT9 (Homo sapiens, UniProt Q6P2P2); assay: PRMT family radioactive assay; assay type: biochemical; conditions: Type II; 60 minute SAM:Enzyme:Compound A preincubation
NSC-LC cell lines = assay: 6-day growth-death assay (Cell Titer Glo); assay type: cell-based, human; conditions: for IC50: Homo sapiens, read-out: Median gIC50, Lung (NSCLC); for Median % Ymin − T0: Lung (NSCLC)
Kidney cancer cell lines = assay: 6-day growth-death assay (Cell Titer Glo); assay type: cell-based, human; conditions: 10 cell lines
[3] = system: Toledo (human DLBCL) xenograft; assay: Toledo xenograft tumor growth; conditions: for Body weight Difference (vs. vehicle): Toledo (DLBCL)
ccRCC cell lines = conditions: only at the highest concentration
[4] = system: Bladder cancer cell lines; assay: 6-day growth-death assay (Cell Titer Glo); assay type: cell-based, human; conditions: for IC50: Homo sapiens, read-out: Median gIC50, Bladder
Melanoma cell lines = assay: 6-day growth-death assay (Cell Titer Glo); conditions: for IC50: Homo sapiens, read-out: Median gIC50, Melanoma
Method: as §1

Breast cancer cell lines = assay: 6-day growth-death assay (Cell Titer Glo); conditions: for IC50: Homo sapiens
Method: Cell lines representing triple negative breast cancer (TNBC) are shown in orange; other subtypes are in blue.
as §1

[5] = Homo sapiens, 144 h, read-out: Median gIC50

Sequence of PRMT9 (Q6P2P2 whole entry): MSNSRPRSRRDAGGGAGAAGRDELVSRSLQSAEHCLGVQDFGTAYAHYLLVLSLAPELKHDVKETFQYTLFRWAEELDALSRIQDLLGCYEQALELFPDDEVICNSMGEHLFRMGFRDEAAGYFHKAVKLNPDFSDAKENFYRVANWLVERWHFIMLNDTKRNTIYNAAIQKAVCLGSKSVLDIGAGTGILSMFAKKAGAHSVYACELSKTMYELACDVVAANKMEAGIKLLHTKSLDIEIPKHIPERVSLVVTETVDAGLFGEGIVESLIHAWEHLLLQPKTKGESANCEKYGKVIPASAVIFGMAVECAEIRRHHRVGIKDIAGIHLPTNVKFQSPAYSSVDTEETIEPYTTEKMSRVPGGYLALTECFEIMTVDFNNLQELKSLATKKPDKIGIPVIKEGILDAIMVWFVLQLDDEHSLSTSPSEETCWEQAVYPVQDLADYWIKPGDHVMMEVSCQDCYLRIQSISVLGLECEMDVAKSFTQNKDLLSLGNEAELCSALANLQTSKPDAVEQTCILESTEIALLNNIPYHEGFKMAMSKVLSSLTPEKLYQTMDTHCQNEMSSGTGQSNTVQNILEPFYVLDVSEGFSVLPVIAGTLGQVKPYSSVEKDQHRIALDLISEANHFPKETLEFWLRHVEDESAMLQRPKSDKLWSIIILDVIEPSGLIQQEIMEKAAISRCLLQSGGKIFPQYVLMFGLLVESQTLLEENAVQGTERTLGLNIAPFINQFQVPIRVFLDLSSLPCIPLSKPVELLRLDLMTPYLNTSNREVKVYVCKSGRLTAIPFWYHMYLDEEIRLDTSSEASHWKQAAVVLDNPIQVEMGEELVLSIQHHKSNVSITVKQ

## CCOCC1(COCC)CCC(c2n[nH]cc2CN(C)CCNC)CC1 [Compound A]
[1]
  % Cytotoxic (cell lines with negative Ymin−T0): 0%
  % gIC100 < 2 μM (of cell lines): 0%
HL-60
  IC50: 0.02 ± 0.01 µM
ACHN
  IC50: 0.1 ± 0.05 µM
A375
  IC50: 0.05 ± 0.03 µM
SK-MEL-5
  IC50: 0.09 ± 0.03 µM
AML cell lines; 6-day, AML, 10 cell lines
  % Cytotoxic (cell lines with negative Ymin−T0): 50%
  % gIC100 < 2 μM (of cell lines): 0%
  Median gIC100: 16.72 µM
AML cell lines; 6-day, of 10 AML cell lines
  number of cell lines in which cytotoxicity was induced: 5
AML cell lines; [5]
  IC50: 0.54 µM
Toledo; beginning after 3 days of treatment
  Compound A concentrations giving accumulation of cells in sub-G1: ≥ 1000 nM
Toledo; by day 7
  Compound A concentrations giving increase in the sub-G1 population: ≥ 100 nM
OCI-Ly1
  Compound A concentration at which sub-G1 effect was evident: 10 µM
U2932
  Compound A concentration at which sub-G1 effect was evident: 10 µM
Colon cancer cell lines; 6-day, Colon, 34 cell lines
  % Cytotoxic (cell lines with negative Ymin−T0): 3%
  % gIC100 < 2 μM (of cell lines): 0%
  Median gIC100: 29.33 µM
Colon cancer cell lines; [5]
  IC50: 5.51 µM
[2]; 150 mg/kg QD oral, Day 59
  Body weight Difference (vs. vehicle): −3%
[2]; 300 mg/kg QD oral, Day 59
  Body weight Difference (vs. vehicle): −4%
[2]; 450 mg/kg QD oral, Day 59
  Body weight Difference (vs. vehicle): −7%
[2]; 600 mg/kg QD oral, arm terminated at day 31
  Body weight Difference (vs. vehicle): −17%
[2]; ACHN, 600 mg/kg daily, dosing group terminated on day 31
  body weight loss: Significant body weight loss
MDA-MB-435S
  gIC100: 29.33 ± 0.00 µM
PRMT9
  inhibition of activity: failed to inhibit
NSC-LC cell lines; 6-day, NSC-LC, 25 cell lines
  % Cytotoxic (cell lines with negative Ymin−T0): 16%
  % gIC100 < 2 μM (of cell lines): 0%
  Median gIC100: 29.33 µM
NSC-LC cell lines; MTAP High
  IC50: 5 µM
  Median % Ymin − T0: 141%
NSC-LC cell lines; MTAP Low
  IC50: 3 µM
  Median % Ymin − T0: 237%
Kidney cancer cell lines
  % Cytotoxic (cell lines with negative Ymin−T0): 0%
  % gIC100 < 2 μM (of cell lines): 0%
  Median gIC100: 29.35 µM
[3]; second study, 37.5 mg/kg QD oral, Day 25
  Body weight Difference (vs. vehicle): −5%
[3]; second study, 75 mg/kg BID oral, Day 25
  Body weight Difference (vs. vehicle): −4%
[3]; second study, 75 mg/kg QD oral, Day 25
  Body weight Difference (vs. vehicle): −5%
[3]; second study, 150 mg/kg QD oral, Day 25
  Body weight Difference (vs. vehicle): −7%
[3]; 150 mg/kg QD oral, Day 28
  Body weight Difference (vs. vehicle): −4%
[3]; 300 mg/kg QD oral, Day 28
  Body weight Difference (vs. vehicle): −3%
[3]; 450 mg/kg QD oral, Day 28
  Body weight Difference (vs. vehicle): −8%
[3]; 600 mg/kg QD oral, Day 28
  Body weight Difference (vs. vehicle): −7%
[3]; Toledo, any dose group
  body weight loss: No significant body weight loss
ccRCC cell lines
  concentration at which caspase cleavage occurred: 30 µM
[4]; 6-day, Bladder, 18 cell lines
  % Cytotoxic (cell lines with negative Ymin−T0): 0%
  % gIC100 < 2 μM (of cell lines): 0%
[4]; Bladder, MTAP High
  Median % Ymin − T0: 658%
  Median gIC100: 29.3 µM
[4]; Bladder, MTAP Low
  Median % Ymin − T0: 257%
  Median gIC100: 29.3 µM
[4]; MTAP High
  IC50: 7.6 µM
[4]; MTAP Low
  IC50: 1.6 µM
Melanoma cell lines; 6-day, Melanoma, 7 cell lines
  % Cytotoxic (cell lines with negative Ymin−T0): 0%
  % gIC100 < 2 μM (of cell lines): 0%
  Median gIC100: 29.33 µM
Melanoma cell lines; MTAP High
  IC50: 1.9 µM
Melanoma cell lines; MTAP Low
  IC50: 0.3 µM
Melanoma cell lines; Melanoma, MTAP High
  Median % Ymin − T0: 214%
  Median gIC100: 29.4 µM
Melanoma cell lines; Melanoma, MTAP Low
  Median % Ymin − T0: 53%
Breast cancer cell lines; 6-day, Breast, 29 cell lines
  % Cytotoxic (cell lines with negative Ymin−T0): 10%
  % gIC100 < 2 μM (of cell lines): 0%
  Median gIC100: 29.36 µM
Breast cancer cell lines; Breast, MTAP High
  Median % Ymin − T0: 174%
  Median gIC100: 29.4 µM
Breast cancer cell lines; Breast, MTAP Low
  Median % Ymin − T0: 188%
Breast cancer cell lines; 144 h, read-out: median gIC50, 6-day, TNBC cell lines
  IC50: 3.6 µM
Breast cancer cell lines; 144 h, read-out: median gIC50, 6-day, non-TNBC cell lines
  IC50: 6.8 µM
Breast cancer cell lines; read-out: Median gIC50, Breast, MTAP High
  IC50: 4.9 µM
Breast cancer cell lines; read-out: Median gIC50, Breast, MTAP Low
  IC50: 10.2 µM
